{"source": "patent EP0973746B1", "about": "“SUBSTITUTED 3-CYANO QUINOLINES” (Wyeth Holdings Corporation, priority 1997, dated 1998)", "key": {"CCL228": {"system": "CCL228", "test": "Inhibition of cancer cell growth as measured by cell number, CCL228", "format": "cell-based", "conditions": "Homo sapiens; cell number, Sulforhodamine B, 48 hours exposure; Table 5; read-out: IC50 CCL228"}, "MCF7": {"system": "MCF7", "test": "Inhibition of cancer cell growth as measured by cell number, MCF7;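 also: MCF7 was included as a line with little or no EGFR or HER2/neu expression, in contrast to the receptor-overexpressing lines of the panel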", "format": "cell-based, human", "conditions": "Homo sapiens, MCF7, 48 h, cell number, Sulforhodamine B, 48 hours exposure; Table 5; read-out: IC50 MCF7", "source_text": "(§1) The cell lines were chosen since they overexpressed epidermal growth factor receptor (EGFR) (i.e. A431) or HER2/neu (SKBR3), or had little to no expression of the these receptors (SW620, LOX, MCF7)."}, "B7474": {"system": "B7474", "test": "Inhibition of cancer cell growth as measured by cell number, B7474", "format": "cell-based", "conditions": "Homo sapiens; cell number, Sulforhodamine B, 48 hours exposure; Table 6; read-out: IC50 B7474"}, "SKBR3": {"system": "SKBR3", "test": "Inhibition of cancer cell growth as measured by cell number, SKBR3;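 also: SK-BR-3 cells were selected as a line overexpressing HER2/neu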", "format": "cell-based, human", "conditions": "Homo sapiens, SK-BR-3; cell number, Sulforhodamine B, 48 hours exposure; Table 7; read-out: IC50 SKBR3", "source_text": "as §1"}, "HTB161": {"system": "HTB161", "test": "Inhibition of cancer cell growth as measured by cell number, HTB161", "format": "cell-based", "conditions": "Homo sapiens; cell number, Sulforhodamine B, 48 hours exposure; Table 4; read-out: IC50 HTB161"}, "A431 [1]": {"system": "A431", "test": "Inhibition of cancer cell growth as measured by cell number, A431;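 also: human A431 line, picked because it overexpresses epidermal growth factor receptor (EGFR)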", "format": "cell-based, human", "conditions": "Homo sapiens, A-431, 48 h, cell number, Sulforhodamine B, 48 hours exposure; Table 6; read-out: IC50 A431", "source_text": "as §1"}, "HCT15": {"system": "HCT15", "test": "Inhibition of cancer cell growth as measured by cell number, HCT15", "format": "cell-based", "conditions": "Homo sapiens, HCT-15; cell number, Sulforhodamine B, 48 hours exposure; Table 5; read-out: IC50 HCT15"}, "DU145": {"system": "DU145", "test": "Inhibition of cancer cell growth as measured by cell number, DU145", "format": "cell-based", "conditions": "Homo sapiens, DU-145; cell number, Sulforhodamine B, 48 hours exposure; Table 7; read-out: IC50 DU145"}, "HL60": {"system": "HL60", "test": "Inhibition of cancer cell growth as measured by cell number, HL60", "format": "cell-based", "conditions": "Homo sapiens, HL-60; cell number, Sulforhodamine B, 48 hours exposure; Table 7; read-out: IC50 HL60"}, "LOX": {"system": "LOX", "test": "Inhibition of cancer cell growth as measured by cell number, LOX;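 also: LOX cells served as a line with low or absent EGFR and HER2/neu expression, in contrast to receptor-overexpressing lines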", "format": "cell-based, human", "conditions": "Homo sapiens, LOX, 48 h, cell number, Sulforhodamine B, 48 hours exposure; Table 6; read-out: IC50 LOX", "source_text": "as §1"}, "COLO205": {"system": "COLO205", "test": "Inhibition of cancer cell growth as measured by cell number, COLO205", "format": "cell-based", "conditions": "Homo sapiens, COLO 205; cell number, Sulforhodamine B, 48 hours exposure; Table 4; read-out: IC50 COLO205"}, "CACO2": {"system": "CACO2", "test": "Inhibition of cancer cell growth as measured by cell number, CACO2", "format": "cell-based", "conditions": "Homo sapiens, Caco-2; cell number, Sulforhodamine B, 48 hours exposure; Table 5; read-out: IC50 CACO2"}, "T47D": {"system": "T47D", "test": "Inhibition of cancer cell growth as measured by cell number, T47D", "format": "cell-based", "conditions": "Homo sapiens, cell number, Sulforhodamine B, 48 hours exposure, Table 6, read-out: IC50 T47D"}, "PC3": {"system": "PC3", "test": "Inhibition of cancer cell growth as measured by cell number, PC3", "format": "cell-based", "conditions": "Homo sapiens, PC-3; cell number, Sulforhodamine B, 48 hours exposure; Table 7; read-out: IC50 PC3"}, "LX1": {"system": "LX1", "test": "Inhibition of cancer cell growth as measured by cell number, LX1", "format": "cell-based", "conditions": "Homo sapiens, LX-1; cell number, Sulforhodamine B, 48 hours exposure; Table 6; read-out: IC50 LX1"}, "SW948": {"system": "SW948", "test": "Inhibition of cancer cell growth as measured by cell number, SW948", "format": "cell-based", "conditions": "Homo sapiens, SW948; cell number, Sulforhodamine B, 48 hours exposure; Table 5; read-out: IC50 SW948"}, "SW620": {"system": "SW620", "test": "Inhibition of cancer cell growth as measured by cell number, SW620;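 also: SW620 was included as a cell line with little or no EGFR or HER2/neu expression, in contrast to receptor-overexpressing lines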", "format": "cell-based, human", "conditions": "Homo sapiens, SW-620, 48 h, cell number, Sulforhodamine B, 48 hours exposure; Table 4; read-out: IC50 SW620", "source_text": "as §1"}, "CX1": {"system": "CX1", "test": "Inhibition of cancer cell growth as measured by cell number, CX1", "format": "cell-based", "conditions": "Homo sapiens, CX-1; cell number, Sulforhodamine B, 48 hours exposure; Table 4; read-out: IC50 CX1"}, "NEC": {"system": "NEC", "test": "Inhibition of cancer cell growth as measured by cell number, NEC", "format": "cell-based", "conditions": "Homo sapiens; cell number, Sulforhodamine B, 48 hours exposure; Table 6; read-out: IC50 NEC"}, "A27805": {"system": "A27805", "test": "Inhibition of cancer cell growth as measured by cell number, A27805", "format": "cell-based", "conditions": "Homo sapiens; cell number, Sulforhodamine B, 48 hours exposure; Table 4; read-out: IC50 A27805"}, "LS174T": {"system": "LS174T", "test": "Inhibition of cancer cell growth as measured by cell number, LS174T", "format": "cell-based", "conditions": "Homo sapiens, cell number, Sulforhodamine B, 48 hours exposure, Table 5, read-out: IC50 LS174T"}, "A431 [2]": {"system": "A431", "test": "Inhibition of cell growth by incorporation of [3H]-thymidine, A431", "format": "cell-based, human", "conditions": "Homo sapiens, A-431; [3H]-thymidine incorporation; A431; read-out: IC50 A431", "procedure": "Representative compounds of this invention were evaluated for their ability to inhibit the growth of the cell lines described below in vitro. The inhibition is quantitated by measuring the decrease in the incorporation of radio-labeled thymidine when the cells are grown in the presence of the inhibitor. […] Cells were routinely grown in a humidified incubator in 5% CO2 in air.\nCells were seeded at 10,000 cells/well in 96 well plates in complete media and allowed to grow to log phase. At this stage the complete media was replaced with media containing 0.5% FBS (for cells growing in 10% FBS) or media lacking epidermal growth factor (EGF) (for cells growing in serum free media). […] Media with test compound was then removed and complete media was added back. The cells were allowed to grow for 18 hours. This is followed by incubation in [^3H]thymidine (1mCi/ml in serum/EGF media) for 4 hours. Cells were lysed in 0.5 M NaOH for at least 30 min at 37°C and radioactivity analyzed.\nThe % inhibition of the compound evaluated was determined for at least three different concentrations and the IC50 value evaluated from the dose response curve. […] CPM(control) is in units of counts per minute and is a number expressing the amount of [^3H]thymidine incorporated onto the DNA when cells are grown in the absence of test compound as measured by liquid scintillation counting."}, "A2780DDP": {"system": "A2780DDP", "test": "Inhibition of cancer cell growth as measured by cell number, A2780DDP", "format": "cell-based", "conditions": "Homo sapiens; cell number, Sulforhodamine B, 48 hours exposure; Table 4; read-out: IC50 A2780DDP"}, "CCRF-CFM": {"system": "CCRF-CFM", "test": "Inhibition of cancer cell growth as measured by cell number, CCRF-CFM", "format": "cell-based", "conditions": "Homo sapiens; cell number, Sulforhodamine B, 48 hours exposure; Table 7; read-out: IC50 CCRF-CFM"}, "[3]": {"biological_target": "recombinant human MEK 1 (MAPKK) and recombinant human ERK2 (MAPK)", "test": "Mitogen Activated Protein Kinase (MAPK) assay, two component coupled MEK 1 / ERK2;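 also: MEK 1-activated ERK2 phosphorylates MBP or Myc peptide with 33P-ATP, filter capture and scintillation counting, inhibitor preincubated with ERK2 30 min at 0 °C, inhibition relative to uninhibited control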", "format": "biochemical", "conditions": "separate entries for the same compound = evaluated more than one time"}, "LNCAP": {"system": "LNCAP", "test": "Inhibition of cancer cell growth as measured by cell number, LNCAP", "format": "cell-based", "conditions": "Homo sapiens, cell number, Sulforhodamine B, 48 hours exposure, Table 7, read-out: IC50 LNCAP"}, "A549": {"system": "A549", "test": "Inhibition of cancer cell growth as measured by cell number, A549", "format": "cell-based", "conditions": "Homo sapiens, A549; cell number, Sulforhodamine B, 48 hours exposure; Table 6; read-out: IC50 A549"}, "MIP": {"system": "MIP", "test": "Inhibition of cancer cell growth as measured by cell number, MIP", "format": "cell-based", "conditions": "Homo sapiens; cell number, Sulforhodamine B, 48 hours exposure; Table 4; read-out: IC50 MIP"}}, "data": [{"smiles": "COc1cc2ncc(C#N)c(NC3CCCCC3)c2cc1OC", "note": "[Example 38, 4-(Cyclohexyamino)-6,7-dimethoxy-3-quinolinecarbonitrile]", "values": [{"measurement": "IC50", "setting": "CCL228", "value": 8.49, "unit": "µg/mL"}, {"measurement": "IC50", "setting": "MCF7", "value": 6, "unit": "µg/mL"}, {"measurement": "IC50", "setting": "B7474", "value": 17, "unit": "µg/mL"}, {"measurement": "IC50", "setting": "SKBR3", "value": 7.14, "unit": "µg/mL"}, {"measurement": "IC50", "setting": "HTB161", "value": 3.19, "unit": "µg/mL"}, {"measurement": "IC50", "setting": "A431 [1]", "value": 4.73, "unit": "µg/mL"}, {"measurement": "IC50", "setting": "HCT15", "value": 5.16, "unit": "µg/mL"}, {"measurement": "IC50", "setting": "DU145", "value": 5.15, "unit": "µg/mL"}, {"measurement": "IC50", "setting": "HL60", "value": 4.27, "unit": "µg/mL"}, {"measurement": "IC50", "setting": "LOX", "value": 8.12, "unit": "µg/mL"}, {"measurement": "IC50", "setting": "COLO205", "value": 6.43, "unit": "µg/mL"}, {"measurement": "IC50", "setting": "CACO2", "value": 5.62, "unit": "µg/mL"}, {"measurement": "IC50", "setting": "T47D", "value": 5.98, "unit": "µg/mL"}, {"measurement": "IC50", "setting": "PC3", "value": 9.33, "unit": "µg/mL"}, {"measurement": "IC50", "setting": "LX1", "value": 7.52, "unit": "µg/mL"}, {"measurement": "IC50", "setting": "SW948", "value": 10.4, "unit": "µg/mL"}, {"measurement": "IC50", "setting": "SW620", "value": 31.7, "unit": "µg/mL"}, {"measurement": "IC50", "setting": "CX1", "value": 5.62, "unit": "µg/mL"}, {"measurement": "IC50", "setting": "NEC", "value": 6.53, "unit": "µg/mL"}, {"measurement": "IC50", "setting": "A27805", "value": 4.58, "unit": "µg/mL"}, {"measurement": "IC50", "setting": "LS174T", "value": 5.37, "unit": "µg/mL"}, {"measurement": "IC50", "setting": "A431 [2]", "value": 35, "unit": "µM"}, {"measurement": "IC50", "setting": "A2780DDP", "value": 6.56, "unit": "µg/mL"}, {"measurement": "IC50", "setting": "CCRF-CFM", "value": 4.39, "unit": "µg/mL"}, {"measurement": "IC50", "setting": "[3]", "value": 45, "unit": "µM"}, {"measurement": "IC50", "setting": "LNCAP", "value": 4.58, "unit": "µg/mL"}, {"measurement": "IC50", "setting": "A549", "value": 7.33, "unit": "µg/mL"}, {"measurement": "IC50", "setting": "MIP", "value": 7.75, "unit": "µg/mL"}]}]}
